Source: patent publication US20190040025A1, “INDOLEAMINE 2,3-DIOXYGENASE INHIBITOR, PREPARATION METHOD THEREFOR, AND APPLICATION” (Jiangsu Hansoh Pharmaceutical Group Co., Ltd., priority 2016, published 2019)
pIC50: −log10 of the molar value.

Columns and labels:
[1] = Pharmacokinetic (PK) analysis of rat plasma; type: in vivo; conditions: Sprague-Dawley, po, 20 mg/kg, SD rats, single gavage, 20 mg/10 mL/kg
Method: The pharmacokinetics test of the test compound was performed with Sprague Dawley (SD) rats (Shanghai Slac Laboratory Animal Co., LTD).
Mode of administration: Single gavage.
U Dosage: 20 mg/10 mL/kg.
Formulation prescription: 3% dimethylacetamide and 20% hydroxypropyl-3-cyclodextrin.
Sampling points: before administration and 15 minutes, 0.5, 1, 2, 4, 6, 8 and 24 hours after administration.
Plasma sampling and sample processing: • 1) 0.2 ml of intravenous blood was collected and placed in an EDTA-2K tube. The blood was centrifuged at 4° C. for 5 minutes at 6,000 rpm to separate the plasma, which was stored at −80° C. • 2) 160 μL of acetonitrile were added to 40 μL of plasma sample, standard, and internal reference. The mixture was shaken vertically for 3 minutes, and centrifuged at 4000 rpm for 10 minutes. 100 μL of the supernatant were taken, and then added with 100 μL of deionized water and mixed well. 100 μL of the resulting solution was taken for LC/MS/MS analysis. The instrument for plasma LC/MS/MS analysis was AB Sciex API 4000.
Liquid Chromatography Analysis: • Liquid chromatography conditions: Shimadzu LC-20AD pump • Chromatographic column: phenomenex Gemiu 5 μm C18 50×4.6 mm • Mobile phase: solution A was 0.1% formic acid solution, and solution B was acetonitrile • Flow rate: 0.8 mL/min • Elution time: 0-3.01 minutes and the eluent was as follows:
• Mass spectrometry analysis: setup conditions of mass spectrometer: positive ion electrospray ionization (ESI) mode. • Experimental results: the main parameters of pharmacokinetics were calculated by WinNonlin 6.1 and the experimental results are shown in the following table: […]

[2] = molecular target: T1, Human indoleamine 2,3-dioxygenase (IDO) (Homo sapiens, UniProt P14902); experiment: Enzymatic test for IDO activity inhibition; type: biochemical; conditions: 40 nM IDO enzyme, 0.2 mM L-tryptophan, 60 minutes at 30° C.
T1 construct: purchased BPS Bioscience Inc
Method: Human indoleamine 2,3-dioxygenase (IDO) was purchased from BPS Bioscience Inc. The enzymatic reaction of idoleamine 2,3-dioxygenase (IDO) was performed in a 96-well plate with a reaction volume of 20 μL. The reaction conditions were: 40 nM IDO enzyme, 0.2 mM L-tryptophan, 50 mM KPB (pH 6.5) buffer, 20 mM sodium L-L-ascorbate, 10 μM methylene blue, 0.2 mg/mL catalase, different concentrations of compounds containing <1% dimethyl sulfoxide. After reacting for 60 minutes at 30° C., 5 μL of 30% (w/v) trichloroacetic acid (in 50 mM KPB buffer) weres added to each well. The plate was incubated for 30 minutes at 50° C. to hydrolyze N-formyl-kynurenine to kynurenine. 25 μL of 2% (w/v) p-(dimethylamino)benzaldehyde (p-DMBA)/glacial acetic acid solution were added to each well. The absorbance at 490 nm was read on a BioTek Synergy H1 microplate reader […].
The stock solution of the test compound was prepared to 10 mM with dimethyl sulfoxide, diluted with dimethyl sulfoxide to the highest concentration of the test during the experiment, then diluted in 1:3 gradient, and generally diluted to 8 to 10 concentration points. Duplicate wells were set for each concentration point, and one reference compound was included in each experiment. The original data of the absorbance at 490 nm read on a microplate reader were analyzed. The inhibition of IDO enzyme activity was calculated at different concentrations of the test compound. The half-inhibitory concentration IC50 value of the compound was obtained by non-linear fitting analysis of inhibition percentage data by GraphPad Prism software.

T1 sequence (P14902 whole entry): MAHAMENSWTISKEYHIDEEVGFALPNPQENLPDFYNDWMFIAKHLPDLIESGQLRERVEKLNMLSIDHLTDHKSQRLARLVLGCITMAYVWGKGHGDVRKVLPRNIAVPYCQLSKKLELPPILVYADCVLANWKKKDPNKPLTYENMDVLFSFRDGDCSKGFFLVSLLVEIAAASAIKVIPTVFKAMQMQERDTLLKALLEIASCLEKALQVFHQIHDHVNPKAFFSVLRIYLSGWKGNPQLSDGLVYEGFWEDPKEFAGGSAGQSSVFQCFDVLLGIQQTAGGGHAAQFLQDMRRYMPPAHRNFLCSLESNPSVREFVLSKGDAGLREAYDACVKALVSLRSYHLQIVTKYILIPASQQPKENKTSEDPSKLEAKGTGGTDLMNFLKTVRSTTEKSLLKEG

- AUC(0-inf) [1]: 5180 ng·h/mL
- Cmax [1]: 1350 ng/mL
- Tmax [1]: 0.5 h
- half-life [1]: 3.54 h
- pIC50 [2]: 7.57
SMILES: CS(=O)(CCNc1nonc1/C(=N/O)Nc1ccc(F)c(Br)c1)=NS(=O)(=O)C1CC1 (centres unmarked) [Example 15, (Z)—N-(3-bromo-4-fluorophenyl)-4-((2-(N-(cyclopropylsulfonyl)-S-methylsulfonimidoyl)ethyl)amino)-N′-hydroxy-1,2,5-oxadiazole-3-carboximidamide]
